Results published in ChEMBL document CHEMBL4354881, “Optimization of Potent ATAD2 and CECR2 Bromodomain Inhibitors with an Atypical Binding Mode” (J Med Chem, 2020).
Values after ≈ are worked out from the molar mass of the structure shown.

Columns and labels:
[1] = Lipophilicity, log D of the compound at pH 7.4 by chromatographic method; type: physicochemical; details: buffer
[2] = target: T1, Chromatin remodeling regulator CECR2 (Homo sapiens, UniProt Q9BXF3); test: Displacement of Alexa Fluor 647-labeled GSK tracer from FLAG-6His-Tev-fused CECR2 (424 to 543 residue) (unknown origin) measured after 15 mins by TR-FRET assay
Homo sapiens = species on record: Homo sapiens; test: Selectivity ratio of IC50 for displacement of Alexa Fluor 488-labeled ligand from FLAG-6His-Tev-fused ATAD2 (981 to 1121 residue) (unknown origin) to IC50 for displacement of Alexa Fluor 647-labeled GSK tracer from FLAG-6His-Tev-fused CECR2 (424 to 543 residue) (unknown origin)
[3] = target: Bromodomain-containing protein 4 (Homo sapiens, UniProt O60885, Y390A); test: Displacement of Alexa Fluor 647-labeled ligand from BRD4 BD1 Y390A mutant (1 to 477 residue) (unknown origin) measured after 30 mins by TR-FRET assay
[4] = target: T2, ATPase family AAA domain-containing protein 2 (Homo sapiens, UniProt Q6PL18); test: Displacement of Alexa Fluor 488-labeled ligand from FLAG-6His-Tev-fused ATAD2 (981 to 1121 residue) (unknown origin) measured after 30 mins by TR-FRET assay
T2 sequence (Q6PL18 whole entry): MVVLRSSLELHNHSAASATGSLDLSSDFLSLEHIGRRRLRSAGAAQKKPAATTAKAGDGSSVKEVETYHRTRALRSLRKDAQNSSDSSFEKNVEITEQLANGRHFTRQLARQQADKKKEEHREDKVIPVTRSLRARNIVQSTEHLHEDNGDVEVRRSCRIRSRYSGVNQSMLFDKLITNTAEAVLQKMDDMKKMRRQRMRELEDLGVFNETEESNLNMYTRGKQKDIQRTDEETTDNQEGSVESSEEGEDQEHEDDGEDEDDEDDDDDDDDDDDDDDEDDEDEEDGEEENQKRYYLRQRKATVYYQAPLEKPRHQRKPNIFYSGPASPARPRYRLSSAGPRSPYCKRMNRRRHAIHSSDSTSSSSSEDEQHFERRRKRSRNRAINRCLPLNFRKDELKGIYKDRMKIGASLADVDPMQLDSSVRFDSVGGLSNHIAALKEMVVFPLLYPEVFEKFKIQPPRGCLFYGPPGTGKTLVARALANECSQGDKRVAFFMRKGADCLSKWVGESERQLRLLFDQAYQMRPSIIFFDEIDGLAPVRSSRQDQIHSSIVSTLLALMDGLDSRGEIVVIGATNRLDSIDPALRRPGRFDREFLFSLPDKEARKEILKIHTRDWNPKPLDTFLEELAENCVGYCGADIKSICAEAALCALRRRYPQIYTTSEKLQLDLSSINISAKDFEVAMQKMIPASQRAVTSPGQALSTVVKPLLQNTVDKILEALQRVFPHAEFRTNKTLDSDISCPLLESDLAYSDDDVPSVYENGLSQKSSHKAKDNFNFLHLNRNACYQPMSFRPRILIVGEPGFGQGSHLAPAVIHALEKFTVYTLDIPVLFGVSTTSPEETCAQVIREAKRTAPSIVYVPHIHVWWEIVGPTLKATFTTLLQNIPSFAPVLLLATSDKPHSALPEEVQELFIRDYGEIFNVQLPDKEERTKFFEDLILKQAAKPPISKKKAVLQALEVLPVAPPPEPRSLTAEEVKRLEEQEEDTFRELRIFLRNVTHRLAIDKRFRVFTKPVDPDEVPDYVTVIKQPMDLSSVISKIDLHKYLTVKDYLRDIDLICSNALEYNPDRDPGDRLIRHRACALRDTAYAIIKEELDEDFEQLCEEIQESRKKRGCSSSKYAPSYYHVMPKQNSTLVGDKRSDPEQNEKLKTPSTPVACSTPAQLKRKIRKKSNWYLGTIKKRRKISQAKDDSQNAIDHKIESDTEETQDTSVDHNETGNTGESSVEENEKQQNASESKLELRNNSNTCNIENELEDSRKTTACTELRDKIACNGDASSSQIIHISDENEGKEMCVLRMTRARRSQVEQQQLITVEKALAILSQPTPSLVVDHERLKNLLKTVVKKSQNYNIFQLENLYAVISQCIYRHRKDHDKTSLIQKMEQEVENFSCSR

[5] = Solubility of the compound by CAD method; type: physicochemical
[6] = target: Histone acetyltransferase KAT2A (Homo sapiens, UniProt Q92830); test: Binding affinity to human partial length GCN5L2 (E726 to K837 residues) expressed in bacterial expression system by BROMOscan assay
[7] = Permeability of the compound by artificial lipid membrane-based method; type: ADME; details: not told; read-out: permeability
[8] = target: Bromodomain-containing protein 4 (Homo sapiens, UniProt O60885); test: Displacement of Alexa Fluor 647-labeled ligand from BRD4 BD2 (unknown origin) measured after 30 mins by TR-FRET assay
[9] = target: T1, Chromatin remodeling regulator CECR2; test: Inhibition of BSP-BODIPY binding to Nanoluc-tagged CECR2 (unknown origin) expressed in HEK293 cells measured after 4 to 6 hrs by NanoBRET assay; type: cell-based
[10] = target: T1, Chromatin remodeling regulator CECR2; test: Binding affinity to human partial length CECR2 (P423 to D543 residues) expressed in bacterial expression system by BROMOscan assay
[11] = target: T1, Chromatin remodeling regulator CECR2; test: Binding affinity to CECR2 (unknown origin) by ITC analysis

T1 sequence (Q9BXF3 whole entry, the tested form may be a part): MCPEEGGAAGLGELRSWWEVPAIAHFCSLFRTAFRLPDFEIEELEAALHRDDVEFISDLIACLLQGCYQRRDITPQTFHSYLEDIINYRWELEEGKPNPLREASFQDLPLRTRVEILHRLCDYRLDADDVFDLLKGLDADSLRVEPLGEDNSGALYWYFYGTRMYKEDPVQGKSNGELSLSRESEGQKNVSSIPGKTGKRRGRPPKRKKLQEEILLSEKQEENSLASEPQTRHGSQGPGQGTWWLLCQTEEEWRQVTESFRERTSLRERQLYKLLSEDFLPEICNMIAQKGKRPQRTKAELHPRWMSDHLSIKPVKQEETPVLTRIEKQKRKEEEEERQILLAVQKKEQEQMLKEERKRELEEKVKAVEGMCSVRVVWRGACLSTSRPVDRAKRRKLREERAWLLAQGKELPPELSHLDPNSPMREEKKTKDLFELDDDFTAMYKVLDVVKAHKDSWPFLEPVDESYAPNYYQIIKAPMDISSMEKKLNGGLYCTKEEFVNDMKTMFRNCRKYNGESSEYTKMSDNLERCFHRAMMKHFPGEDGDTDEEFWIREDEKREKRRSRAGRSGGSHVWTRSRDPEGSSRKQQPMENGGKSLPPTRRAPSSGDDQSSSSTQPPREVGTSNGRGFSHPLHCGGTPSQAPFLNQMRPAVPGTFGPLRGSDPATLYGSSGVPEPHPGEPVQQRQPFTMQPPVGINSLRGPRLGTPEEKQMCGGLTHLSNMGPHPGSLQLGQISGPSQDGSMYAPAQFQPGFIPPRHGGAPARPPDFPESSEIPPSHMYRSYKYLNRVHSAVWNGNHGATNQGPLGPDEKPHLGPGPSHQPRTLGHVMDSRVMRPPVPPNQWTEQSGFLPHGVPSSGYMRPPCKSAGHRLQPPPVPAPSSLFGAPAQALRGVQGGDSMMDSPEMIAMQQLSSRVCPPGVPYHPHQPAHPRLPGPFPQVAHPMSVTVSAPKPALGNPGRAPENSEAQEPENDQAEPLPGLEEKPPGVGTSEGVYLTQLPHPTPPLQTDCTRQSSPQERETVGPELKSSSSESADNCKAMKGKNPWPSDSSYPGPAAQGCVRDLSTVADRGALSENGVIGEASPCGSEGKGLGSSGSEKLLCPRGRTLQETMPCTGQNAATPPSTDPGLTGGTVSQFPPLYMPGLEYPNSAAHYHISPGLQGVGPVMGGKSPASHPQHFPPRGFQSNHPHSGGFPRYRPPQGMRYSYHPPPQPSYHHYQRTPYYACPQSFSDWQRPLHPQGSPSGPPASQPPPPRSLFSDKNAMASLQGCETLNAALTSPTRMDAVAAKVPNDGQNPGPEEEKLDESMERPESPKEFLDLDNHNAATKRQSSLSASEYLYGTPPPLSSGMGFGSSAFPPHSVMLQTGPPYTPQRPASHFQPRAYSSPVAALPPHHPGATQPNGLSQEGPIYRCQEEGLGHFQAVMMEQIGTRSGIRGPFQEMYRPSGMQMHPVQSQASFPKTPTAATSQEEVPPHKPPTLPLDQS
Histone acetyltransferase KAT2A, sequence (Q92830 whole entry, the tested form may be a part): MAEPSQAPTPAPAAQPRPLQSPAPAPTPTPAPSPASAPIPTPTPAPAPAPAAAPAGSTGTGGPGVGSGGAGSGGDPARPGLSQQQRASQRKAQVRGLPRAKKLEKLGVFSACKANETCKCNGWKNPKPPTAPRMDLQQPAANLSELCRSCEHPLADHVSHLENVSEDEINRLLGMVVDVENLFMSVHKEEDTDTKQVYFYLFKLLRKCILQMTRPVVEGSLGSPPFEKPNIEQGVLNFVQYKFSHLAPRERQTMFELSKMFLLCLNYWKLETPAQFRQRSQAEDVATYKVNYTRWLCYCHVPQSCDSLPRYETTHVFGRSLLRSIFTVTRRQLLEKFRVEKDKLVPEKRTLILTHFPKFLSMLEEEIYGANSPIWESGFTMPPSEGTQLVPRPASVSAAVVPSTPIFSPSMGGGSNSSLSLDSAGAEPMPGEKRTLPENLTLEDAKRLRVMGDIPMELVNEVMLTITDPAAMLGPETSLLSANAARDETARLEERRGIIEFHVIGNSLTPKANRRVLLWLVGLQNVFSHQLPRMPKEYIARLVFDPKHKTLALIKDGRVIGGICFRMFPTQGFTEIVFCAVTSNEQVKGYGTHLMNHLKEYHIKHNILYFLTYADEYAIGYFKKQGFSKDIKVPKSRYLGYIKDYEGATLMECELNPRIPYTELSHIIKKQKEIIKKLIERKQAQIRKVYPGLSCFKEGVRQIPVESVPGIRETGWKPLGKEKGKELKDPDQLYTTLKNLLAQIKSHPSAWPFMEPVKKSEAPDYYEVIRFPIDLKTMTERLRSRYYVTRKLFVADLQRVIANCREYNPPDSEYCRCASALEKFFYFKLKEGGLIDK

| Compound | chromatographic logD [1] | IC50 [2] | Ratio IC50 (Homo sapiens) | IC50 [3] | IC50 [4] | solubility [5] | Kd [6] | Papp [7] | IC50 [8] | IC50 [9] | Kd [10] | Kd [11] |
| --- | --- | --- | --- | --- | --- | --- | --- | --- | --- | --- | --- | --- |
| C[C@H]1CCN(S(=O)(=O)c2cc(NC(=O)Cn3nnc4c3CCN(CC(F)(F)F)C4)ccc2Br)C1 | 5.3 | 0.158 µM | 16 | 31.6 µM | 2.51 µM | 0.049 mg/mL (≈ 86.7 µM) | – | – | – | – | – | – |
| CN1CCc2c(nnn2CC(=O)Nc2ccc(Cl)c(S(=O)(=O)N3CC[C@H](C4CC4)C3)c2)C1 | – | 0.02 µM | – | 25.1 µM | 3.16 µM | – | 0.501 µM | 111 nm/s | 10 µM | 0.0501 µM | 0.00794 µM | – |
| CN(C)CC1CCN(S(=O)(=O)c2cc(NC(=O)CN3C(=O)CNC3=O)ccc2Cl)C1 (stereo unspecified) | – | 3.98 µM | – | > 50.1 µM | 1 µM | – | – | < 3 nm/s | – | – | – | – |

Now from value to compound:

| chromatographic logD [1] | IC50 [2] | Ratio IC50 (Homo sapiens) | IC50 [3] | IC50 [4] | solubility [5] | Kd [6] | Papp [7] | IC50 [8] | IC50 [9] | Kd [10] | Kd [11] | Compound |
| --- | --- | --- | --- | --- | --- | --- | --- | --- | --- | --- | --- | --- |
| – | – | – | 12.6 µM | 2 µM | – | 0.158 µM | 140 nm/s | 5.01 µM | 0.0398 µM | 0.01 µM | – | CN1CCc2c(nnn2CC(=O)Nc2ccc(Br)c(S(=O)(=O)N3CC[C@H](C4CC4)C3)c2)C1 |
| – | – | – | – | – | – | – | – | – | – | – | 0.01 µM | CN(C)CCCOc1ccc(-c2cc(NCCCn3cccn3)nc(S(C)(=O)=O)n2)cc1 |
